This note sets out measurements from patent US9994552B2, “Compositions useful for treating disorders related to kit” (BLUEPRINT MEDICINES CORPORATION, priority 2013, dated 2018).

One test addresses D816V Kit (Homo sapiens (Human), UniProt P10721, D816V). Kind of test: Kit D816V assay at Km (Caliper electrophoretic mobility shift). The class given is biochemical. Conditions: for IC50: D816V Kit 0.5 nM, 15 uM ATP (Km), 1 uM Srctide, 25 C, 90 minutes, read-out: INH-KITD816V ENZ-KM IC50 (nM) (Num); for times more potent against the D816V mutant than against the wild-type Kit: D816V Kit versus wild-type Kit, enzyme assays at Km. On the procedure: (§1) In order to assess the activity of chemical compounds against the relevant kinase of interest, the Caliper LifeSciences electrophoretic mobility shift technology platform is used. Fluorescently labeled substrate peptide is incubated in the presence of kinase and ATP so that a […] proportion of the peptide is phosphorylated. At the end of the reaction, the mix of phosphorylated (product) and non-phosphorylated (substrate) peptides are passed through the microfluidic system of the Caliper EZ Reader 2, under an applied potential difference. The presence of the phosphate group on the product peptide provides a difference in mass and charge between those of the substrate peptide, resulting in a separation of the substrate and product pools in the sample. As the pools pass a LEDS within the instrument, these pools are detected and resolved as separate peaks. The ratio between these peaks therefore reflects the activity of the chemical matter at that concentration in that well, under those conditions.
(§2) The reaction was stopped by the addition of 70 ul of Stop buffer (100 mM HEPES pH 7.5, 0.015% Brij 35, 35 mM EDTA and 0.2% of Coating Reagent 3 (Caliper Lifesciences)). The plate was then read on a Caliper EZReader 2 (protocol settings: −1.9 psi, upstream voltage −700, downstream voltage −3000, post sample sip 35 s).

In the next test the target is wild type Kit (Homo sapiens (Human), UniProt P10721). Kind of test: Kit wild type assay at Km (Caliper electrophoretic mobility shift). In kind it is biochemical. Conditions: wild type Kit 2 nM, 400 uM ATP (Km), 1 uM Srctide, 25 C, 90 minutes; read-out: INH-KITWT ENZ-KM IC50 (nM) (Num). On the procedure:
as §1, §2

Chain of D816V Kit (P10721 26-976 D816V): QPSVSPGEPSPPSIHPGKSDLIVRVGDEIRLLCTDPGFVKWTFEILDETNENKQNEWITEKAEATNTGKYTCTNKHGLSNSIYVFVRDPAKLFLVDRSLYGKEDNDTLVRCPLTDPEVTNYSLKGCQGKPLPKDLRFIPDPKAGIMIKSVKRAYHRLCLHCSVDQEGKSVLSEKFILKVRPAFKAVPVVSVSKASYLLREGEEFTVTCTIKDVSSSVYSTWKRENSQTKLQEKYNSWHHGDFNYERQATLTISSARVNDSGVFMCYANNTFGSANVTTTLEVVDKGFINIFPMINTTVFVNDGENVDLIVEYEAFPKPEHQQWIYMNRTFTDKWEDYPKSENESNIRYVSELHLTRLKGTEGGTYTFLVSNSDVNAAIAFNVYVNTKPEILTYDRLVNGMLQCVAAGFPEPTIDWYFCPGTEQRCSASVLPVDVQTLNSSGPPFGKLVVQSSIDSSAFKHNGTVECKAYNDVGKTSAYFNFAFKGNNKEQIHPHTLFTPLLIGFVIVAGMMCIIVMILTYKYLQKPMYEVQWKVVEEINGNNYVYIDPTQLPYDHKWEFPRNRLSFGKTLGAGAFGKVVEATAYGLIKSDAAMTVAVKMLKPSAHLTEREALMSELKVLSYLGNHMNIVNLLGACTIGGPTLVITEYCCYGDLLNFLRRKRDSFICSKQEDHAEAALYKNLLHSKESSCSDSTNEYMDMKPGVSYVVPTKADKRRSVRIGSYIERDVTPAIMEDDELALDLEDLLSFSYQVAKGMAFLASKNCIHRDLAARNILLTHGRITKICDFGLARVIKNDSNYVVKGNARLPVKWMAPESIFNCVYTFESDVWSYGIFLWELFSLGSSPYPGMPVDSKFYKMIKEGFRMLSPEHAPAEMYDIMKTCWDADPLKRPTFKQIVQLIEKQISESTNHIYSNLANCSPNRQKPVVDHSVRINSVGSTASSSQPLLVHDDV
Chain of wild type Kit (P10721 26-976): as the sequence (P10721 26-976 D816V) above, with V791D counted along it

One may read the IC50 as the midpoint of a concentration-inhibition curve. As to `COc1cc2c(N3CCN(c4ncc(Cc5ccccc5)cn4)CC3)ncnc2cc1OCC1(C)COC1` [Compound 93], the concentration for half-maximal inhibition (IC50) on D816V Kit was in the range of 1.01 to 10 nM; at wild type Kit it was 11 to 100 nM.
Take `COc1cc2ncnc(N3CCN(c4ncc(NCc5ccc6c(c5)OCO6)cn4)CC3)c2cc1OC` [Compound 83]: the IC50 on D816V Kit was over 100 nM.
In the case of `COc1cc2ncnc(N3CCN(c4ncc(Nc5ccccc5C)cn4)CC3)c2cc1OC` [Compound 32], the IC50 fell in the range of 10 to 100 nM on D816V Kit and 100 to 1000 nM at wild type Kit.
The like results for `COc1cc2ncnc(N3CCN(c4ncc(Cc5ccccc5)cn4)CC3)c2cc1OCCN1CCCC1=O` [Compound 110] were, in that order, under 1 nM and 11 to 100 nM.
Turning to `COc1cc2ncnc(N3CCN(c4ncc(OCc5ccccc5)cn4)C[C@H]3C)c2cc1OC` [Compound 67], on D816V Kit, the IC50 is over 100 nM and the “times more potent against the D816V mutant than against the wild-type Kit” value (from here on “times more potent”) is “less than 5 times”. For the same molecule, the IC50 at wild type Kit is over 1000 nM.
Turning to `COc1cc2ncnc(N3CCN(c4ncc(Cc5cccc(C(N)=O)c5)cn4)CC3)c2cc1OC` [Compound 75], the IC50 on D816V Kit was in the range of 1.01 to 10 nM; on wild type Kit it was 100 to 1000 nM.
Turning to `COc1cc2ncnc(N3CCN(c4ncc(Nc5ccncc5)cn4)CC3)c2cc1OC` [Compound 17], the values for the IC50 on D816V Kit and on wild type Kit were over 100 nM and over 1000 nM, respectively.
For `COc1cc2ncnc(N3CCN(c4ncc(Cc5ccc(C#N)cc5)cn4)CC3)c2cc1OC` [Compound 45] the same measures were 1.01 to 10 nM and 100 to 1000 nM.
With `COc1cc2ncnc(N3CCN(c4ncc(Cc5ccccc5)cn4)CC3)c2cc1OCC1CCCNC1` (centres unmarked) [Compound 97], the IC50 was under 1 nM on D816V Kit and 11 to 100 nM at wild type Kit.
As for `COc1cc2ncnc(N3CCN(c4ncc(OCc5ccc(C)cc5)cn4)CC3)c2cc1OC` [Compound 62], at D816V Kit, the IC50 was in the range of 10 to 100 nM and the “times more potent” value is listed as “at least 100 times”. On wild type Kit, the IC50 is over 1000 nM.
Turning to `COc1cc2ncnc(N3CCN(c4ncc(N5CCCc6ccccc65)cn4)CC3)c2cc1OC` [Compound 74], the IC50 at D816V Kit was in the range of 10 to 100 nM; at wild type Kit, 100 to 1000 nM.
`c1ccc(Cc2cnc(N3CCN(c4ncnc5c4CN(CC4CCNCC4)C5)CC3)nc2)cc1` [Compound 50]: the IC50 at D816V Kit was over 100 nM; on wild type Kit it was over 1000 nM. Further, the “times more potent” value at D816V Kit is given as “less than 5 times”.
As to `COc1cc2ncnc(N3CCN(c4ncc(-c5ccccc5)cn4)CC3)c2cc1OC` [Compound 9], the IC50 is over 100 nM at D816V Kit and over 1000 nM at wild type Kit.
For `COc1cc2ncnc(N3CCN(c4ncc(Nc5ccc(Cl)cc5)cn4)CC3)c2cc1OC` [Compound 70] the same measures were 1.01 to 10 nM and 100 to 1000 nM.
Consider `COc1cc2ncnc(N3CCN(c4ncc(Cc5ccccc5)c(N)n4)CC3)c2cc1OC` [Compound 29], for which the IC50 was under 1 nM at D816V Kit and under 10 nM on wild type Kit.
Regarding `COc1cc2ncnc(N3CCN(c4ncc(Sc5ccccc5)cn4)CC3)c2cc1OC` [Compound 40], the IC50 on D816V Kit lay within 1.01 to 10 nM; on wild type Kit, 100 to 1000 nM.
In the case of `COc1cc2ncnc(N3CCN(c4ncc(Cc5ccccc5)cn4)CC3)c2cc1OCCN1CCN(C)CC1` [Compound 126], the results for the IC50 on D816V Kit and at wild type Kit were 1.01 to 10 nM and 11 to 100 nM, respectively.
For `COc1ccc(Cc2cnc(N3CCN(c4ncnc5cc(OC)c(OC)cc45)CC3)nc2)cc1` [Compound 58] the same measures were 1.01 to 10 nM and 11 to 100 nM.
For `COc1cc2ncnc(N3CCN(c4ncc(Cc5ccccc5)cn4)CC3)c2cc1OCC1(F)CCN(C)CC1` [Compound 131] the same measures were under 1 nM and under 10 nM.
For `COc1cc2ncnc(N3CCN(c4ncc(Cc5ccccc5)cn4)CC3)c2cc1OC1CCNCC1` [Compound 91] the same measures were 1.01 to 10 nM and 11 to 100 nM.
In the case of `COc1cc2ncnc(N3CCN(c4ncc(OC(C)c5ccccc5)cn4)CC3)c2cc1OC` (centres unmarked) [Compound 63], the IC50 lay within 10 to 100 nM at D816V Kit and 100 to 1000 nM at wild type Kit.
As for `COc1cc2ncnc(N3CCN(c4ncc(Cc5ccc(C(C)(C)C)cc5)cn4)CC3)c2cc1OC` [Compound 81], the IC50 on D816V Kit was 10 to 100 nM; at wild type Kit, over 1000 nM.
The like results for `COc1cc2ncnc(N3CCN(c4ncc(OCc5ccc(C(F)(F)F)cc5)cn4)CC3)c2cc1OC` [Compound 102, 6,7-dimethoxy-4-(4-(5-((4-(trifluoromethyl)benzyl)oxy)pyrimidin-2-yl)piperazin-1-yl)quinazoline] were, in that order, over 100 nM and over 1000 nM.
Consider `COc1cc2ncnc(N3CCN(c4ncc(Nc5ccc(F)c(F)c5)cn4)CC3)c2cc1OC` [Compound 71], for which the IC50 on D816V Kit is 1.01 to 10 nM; on wild type Kit, 100 to 1000 nM.
For `COc1cc2ncnc(N3CCN(c4ncc(OCc5cc(Cl)cc(Cl)c5)cn4)CC3)c2cc1OC` [Compound 103], the IC50 on D816V Kit was over 100 nM; on wild type Kit it was over 1000 nM.
On to `COc1cc2ncnc(N3CCN(c4ncc(Cc5cccc(F)c5)cn4)CC3)c2cc1OC` [Compound 39], for which the results for the concentration for half-maximal inhibition (IC50) on D816V Kit and at wild type Kit were 1.01 to 10 nM and 100 to 1000 nM, respectively.
The like results for `COc1cc2ncnc(N3CCN(c4ncc(NC(C)c5ccccc5)cn4)CC3)c2cc1OC` (centres unmarked) [Compound 56] were, in that order, 10 to 100 nM and over 1000 nM.
For `COc1cc2ncnc(N3CCN(c4ncc(NCc5cccc(C)c5)cn4)CC3)c2cc1OC` [Compound 55] the same measures were 10 to 100 nM and over 1000 nM.
The like results for `COc1cc2ncnc(N3CC4CCC(C3)N4c3ncc(Cc4ccccc4)cn3)c2cc1OCC1CNCCO1` (centres unmarked) [Compound 121] were, in that order, under 1 nM and 11 to 100 nM.
For the molecule `c1ccc(Cc2cnc(N3CCN(c4ncnc5c4CNC5)CC3)nc2)cc1` [Compound 2], the IC50 was over 100 nM on D816V Kit and over 1000 nM on wild type Kit.
For `COc1cc2c(N3CCN(c4ncc(Cc5ccccc5)cn4)CC3)ncnc2cc1OC(F)F` [Compound 72], the IC50 at D816V Kit is 10 to 100 nM.
Regarding `COc1cc2ncnc(N3CCN(c4ncc(Nc5cccnc5)cn4)CC3)c2cc1OC` [Compound 16], the concentration for half-maximal inhibition (IC50) fell in the range of 10 to 100 nM on D816V Kit and 100 to 1000 nM at wild type Kit.
For `COc1cc2ncnc(N3CCN(c4ncc(Cc5ccc(F)cc5)cn4)CC3)c2cc1OC` [Compound 38, 4-(4-(5-(4-fluorobenzyl)pyrimidin-2-yl)piperazin-1-yl)-6,7-dimethoxyquinazoline] the same measures were 1.01 to 10 nM and 11 to 100 nM.
Regarding `COc1cc2ncnc(N3CCN(c4ncc(OCC5CCCC5)cn4)CC3)c2cc1OC` [Compound 18], at D816V Kit, the IC50 was over 100 nM and the “times more potent” value was “at least 100 times”. On wild type Kit, the IC50 is over 1000 nM.
As for `COc1cc2ncnc(N3CCN(c4ncc(Cc5ccccc5)cn4)CC3)c2cc1OCC1CCNC1` (centres unmarked) [Compound 89], the IC50 is under 1 nM at D816V Kit and 11 to 100 nM at wild type Kit.
In the case of `COc1cc2ncnc(N3CCN(c4ncc(OCc5ccccc5)cn4)CC3)c2cc1OC` [Compound 37, 4-(4-(5-(benzyloxy)pyrimidin-2-yl)piperazin-1-yl)-6,7-dimethoxyquinazoline], the IC50 at D816V Kit fell in the range of 1.01 to 10 nM; at wild type Kit, 100 to 1000 nM.
For `COc1cc2ncnc(N3CCN(c4ncc(Cc5ccccc5)cn4)C(C)C3)c2cc1OC` (centres unmarked) [Compound 26], the concentration for half-maximal inhibition (IC50) at D816V Kit lay within 10 to 100 nM; at wild type Kit, 100 to 1000 nM.
The like results for `COc1cc2ncnc(N3CCN(c4ncc(Cc5cccc(OC(F)(F)F)c5)cn4)CC3)c2cc1OC` [Compound 101] were, in that order, 10 to 100 nM and 100 to 1000 nM.
The like results for `COc1cc2ncnc(N3CCN(c4ncc(Cc5ccccc5)cn4)CC3)c2cc1OC[C@H]1CNCCO1` [Compound 104] were, in that order, under 1 nM and 11 to 100 nM.
For `COc1cc2ncnc(N3CCN(c4ncc(Cc5ccccc5)cn4)CC3)c2cc1OCC1CN(C)CCO1` (centres unmarked) [Compound 117] the same measures were under 1 nM and 11 to 100 nM.
In the case of `COc1cc2ncnc(N3CCN(c4ncc(Cc5ccccc5)cn4)CC3)c2cc1OCCN1CCNCC1` [Compound 116], the IC50 on D816V Kit fell in the range of 1.01 to 10 nM; at wild type Kit, 11 to 100 nM.
The like results for `COc1cc2ncnc(N3CCN(c4ncc(Cc5ccccc5)cn4)CC3)c2cc1OC[C@@H]1CNCCO1` [Compound 106] were, in that order, 1.01 to 10 nM and 11 to 100 nM.
For `COc1cc2ncnc(N3CCN(c4ncc(OCc5cccs5)cn4)CC3)c2cc1OC` [Compound 43], the half-maximal inhibitory concentration (IC50) lay within 1.01 to 10 nM on D816V Kit and 100 to 1000 nM at wild type Kit.
On to `COc1cc2ncnc(N3CCN(c4ncc(Nc5ccccn5)cn4)CC3)c2cc1OC` [Compound 15], for which the IC50 fell in the range of 10 to 100 nM on D816V Kit and 100 to 1000 nM at wild type Kit.
As to `COc1ccc(COc2cnc(N3CCN(c4ncnc5cc(OC)c(OC)cc45)CC3)nc2)cc1` [Compound 77], at D816V Kit, the IC50 lay in the range of 10 to 100 nM and the “times more potent” value is given as “at least 100 times”. Moreover, the IC50 at wild type Kit was over 1000 nM.
For the molecule `COc1cc2ncnc(N3CCN(c4ncc(S(=O)(=O)c5ccccc5)cn4)CC3)c2cc1OC` [Compound 78], the half-maximal inhibitory concentration (IC50) on D816V Kit is 10 to 100 nM; on wild type Kit it was over 1000 nM.
